Patent EP0565593B1, “REDUCING PESTICIDAL INTERACTIONS IN CROPS” (priority 1990, dated 1992)
Values joined by “and” are separate entries in the source; they are usually repeats but may differ in a detail not shown here. Equal values may be shown once. Read-outs that look alike come from different tables or passages of the source.

What was measured:
Corn [1] = experiment: Greenhouse test, combination of Procedures II and III: insecticide in-furrow or in cover layer, herbicide and antidote incorporated in cover layer (Examples 1-3, 6; Tables 1-3, 6); format: in vivo; conditions: for % Injury Corn / % Corn Injury PN 3320 / % Corn Injury PN 3377: 3 weeks; for Percent Injury Corn: 7 weeks
[2] = system: velvetleaf (Abutilon theophrasti); experiment: Greenhouse test, combination of Procedures II and III (Examples 1, 2; Tables 1, 2); format: in vivo; conditions: for % Injury VELE: 3 weeks; for Percent Injury VELE: 7 weeks
Corn [3] = experiment: Greenhouse test in sterile vs. unsterile soils (chemicals and procedures of Example 6); format: in vivo; conditions: Herbicide No. 1
Procedure: Other greenhouse tests were conducted involving the same chemicals and procedures used in Example 6, to determine any effects from microbial breakdown relative to interactions between the herbicide and insecticides in sterile vs. unsterile soils. […] This finding comports with reports in the trade that organophosphates are known to suffer microbial breakdown due to soil microbes.

Shattercane (SHCA) = format: in vivo
Velvetleaf (VELE) [4] = format: in vivo, Abutilon theophrasti
Giant foxtail (GIFT) [5] = experiment: whole plant or invertebrate; format: in vivo; conditions: in vivo
Velvetleaf (VELE) [6] = experiment: whole plant or invertebrate; format: in vivo, Abutilon theophrasti; conditions: in vivo
cotton (COTT) = experiment: Multi-crop greenhouse test, biocide, herbicide and safener applied to soil covers (Examples 65, 66; Tables 64, 65); format: in vivo; parameters: inhibition: dose or concentration left out as unconfirmed; conditions: Gossypium hirsutum, soil, Biocide No. 1 8.96 Kg/Ha alone
Procedure: (§1) Tests according to this invention in various crops indicate widespread application of the invention. In Examples 62-66 below are described tests with a variety of herbicides contacted with COUNTER® 15G in the presence and absence of MON-7400 (Antidote No. 12); MON-13900 (No. 1); MON-4660 (No. 16) and flurazole (No. 16). Those tests were conducted according to Procedures IV or V described above and illustrated further in other foregoing examples. Plants used in all tests were, for crops (as abbreviated in parentheses); cotton (COTT); soybean (SOBE); CORN, grain sorghum (GRSO); wheat (WHEA) and RICE, and the weeds giant foxtail (GIFT) and velvetleaf (VELE). The data in the tables below represent averages of two replications.
(§2) In this test the crops and weeds were planted 1.3 cm deep in 13.7 cm X 27.7 cm pans containing Dupo silt loam soil. The test safeners were applied in acetone solution and COUNTER 15G as dry granules to soil cover layers and incorporated by shaking in a bag. Treated cover layers were placed on seeded pans which were transferred to greenhouse benches and subirrigated. Herbicide was applied POE six (6) days after PPI initiation and observations of plant injury made ten (10) days later; results are shown in Table 61. The herbicide used in this example was BEACON (No. 8).
(§3) In another test in the several crops and weeds used in this test series, the herbicidal component was MON-12000 (No. 1); the other components were the same. the procedure used in this test was the same as that described in Example 62, modified to use a light overhead irrigation (about 0.32 cm/day) during days 4-7 of the test.
In yet another test in this series, XRD-498 (Herbicide No. 21) was used as the herbicidal component in contact with COUNTER 15G in the presence of the above safeners. The various components of the system (biocide, herbicide and safener) were applied concurrently to soil covers of the seeded plants.

Corn [7] = experiment: Multi-crop greenhouse test, soil-applied (Examples 65, 66; Tables 64, 65); format: in vivo; parameters: inhibition: dose or concentration left out as unconfirmed; conditions: Zea mays, Biocide No. 1 8.96 Kg/Ha alone
Procedure: as §1, §2
as §3, with “test. Table 64 […]” for “test.”

Giant foxtail (GIFT) [8] = experiment: as above; format: in vivo; parameters: inhibition: dose or concentration left out as unconfirmed; conditions: Setaria faberi, Biocide No. 1 8.96 Kg/Ha alone
Procedure: as §1, §2
as §3, with “test. Table 64 […]” for “test.”

RICE = experiment: as above; format: in vivo; parameters: inhibition: dose or concentration left out as unconfirmed; conditions: Oryza sativa, Biocide No. 1 8.96 Kg/Ha alone
Procedure: as §1, §2
as §3, with “test. Table 64 […]” for “test.”

grain sorghum (GRSO) = experiment: as above; format: in vivo; parameters: inhibition: dose or concentration left out as unconfirmed; conditions: Sorghum, Biocide No. 1 8.96 Kg/Ha alone
Procedure: as §1, §2
as §3, with “test. Table 64 […]” for “test.”

soybean (SOBE) = experiment: as above; format: in vivo; parameters: inhibition: dose or concentration left out as unconfirmed; conditions: Glycine max, Biocide No. 1 8.96 Kg/Ha alone
Procedure: as §1, §2
as §3, with “test. Table 64 […]” for “test.”

wheat (WHEA) = experiment: as above; format: in vivo; parameters: inhibition: dose or concentration left out as unconfirmed; conditions: Triticum aestivum, Biocide No. 1 8.96 Kg/Ha alone
Procedure: as §1, §2
as §3, with “test. Table 64 […]” for “test.”

Velvetleaf (VELE) [9] = experiment: as above; format: in vivo, Abutilon theophrasti; parameters: inhibition: dose or concentration left out as unconfirmed; conditions: Abutilon theophrasti, Biocide No. 1 8.96 Kg/Ha alone
Procedure: as §1, §2
as §3, with “test. Table 64 […]” for “test.”

Corn [10] = system: Corn
Corn [11] = conditions: in vivo
Corn [12] = experiment: Greenhouse test Procedure II: herbicide, insecticide and antidote incorporated in cover layer (Example 4; Table 4); format: in vivo; conditions: Insecticide 2 3.36 kg/Ha alone; 3 weeks
Procedure: (§4) Containers were filled and compacted with a fumigated silt loam top soil to a depth of about 1.3 cm from the top of the container. A first container was designated as an untreated control, a second container was designated as a herbicide control, and a third container was designated as a herbicide + antidote test container. Each of the containers was seeded with a crop species. A measured amount of herbicide dispersed or dissolved in acetone was applied to a measured quantity of soil. To this same quantity of soil treated with herbicide, there was added a measured amount of antidote dispersed or dissolved in acetone. The quantity of soil treated with the herbicide and antidote was thoroughly mixed to incorporate the herbicide and antidote in the soil uniformly. The seed bed in the third container of soil was covered with the soil treated with the herbicide and antidote and the container was leveled. For each test series, the seed beds of the first and second containers were likewise covered by soil layers. the cover layer of the first container was not treated with herbicide or antidote.
(§5) This procedure is the same as Procedure I, but modified in the manner that after incorporation of the chemicals (herbicide, antidote and insecticide), the containers with the covered seedbed were treated with an initial overhead irrigation equivalent to 0.6 cm rainfall, then subsequently sub-irrigated as required on greenhouse benches.
(§6) The procedure used in this test was Procedure No. 2 above. Formulations of herbicide, insecticide and antidote were applied via track sprayer sequentially onto cover layers, incorporated into the soil which was spread over seedbeds, then irrigated from above with 0.6 cm water. Observations were made three (3) weeks after treatment.

VELE (velvetleaf) [13] = experiment: Greenhouse test Procedure II (Example 4; Table 4); format: in vivo, Abutilon theophrasti; conditions: Insecticide 2 3.36 kg/Ha alone; 3 weeks
Procedure: as §4, §5, §6

Corn [14] = experiment: Greenhouse test Procedure I with PPI or POE herbicide and foliar insecticide (Example 5; Table 5); format: in vivo
Procedure: as §4
(§7) Insecticide application was made as described in the tests in the examples below. The containers were then placed on a bench in a greenhouse and sub-irrigated as required for the duration of the test.
(§8) Said herbicide and antidote were sequentially pipetted onto cover layers, which were spread over the seed beds and subirrigated as in Procedure I and allowed to grow to a height of about 10 cm over a period of 11 days. Herbicide No. 1 and Insecticide No. 2 were then sequentially sprayed on the plant foliage. Observations were made three (3) weeks after initial treatment, 10 days after foliar treatment).

VELE (velvetleaf) [15] = experiment: as above; format: in vivo, Abutilon theophrasti
Procedure: as §4, §7, §8

[16] = Ex. 2: Insecticide 1 0.23 Kg/305m alone
[17] = Ex. 6: Insecticide 1 0.23 Kg/305m alone
[18] = Insecticide 1 0.23 kg/305m alone
[19] = Insecticide 1 (H2O) (crystals scattered in-furrow) alone
[20] = Ex. 12: Biocide No. 1 8.96 Kg/Ha PPI alone, 13 days after planting
[21] = no antidote, […], observed 10 days after herbicide application
[22] = Ex. 2: Insecticide 2 3.36 kg/Ha alone
[23] = Ex. 6: Insecticide 2 0.23 Kg/305m alone
[24] = Insecticide 2 1.68 Kg/Ha, herbicide cell '-', mode POE (so in the source)
[25] = Table 14: no antidote, Herbicide No. 7 0.84 Kg/Ha POE and/or Biocide No. 2 8.96 Kg/Ha PPI, per label, 13 days after planting
[26] = no antidote, […], 13 days after planting

CCOP(=S)(OCC)SCSC(C)(C)C [Biocide No. 1, S-[[(1,1-dimethyl-ethyl)thio]-methyl]O,O-diethylphosphorodithioate, reference compound]
% Injury Corn (Corn [1]; [16]): 3%
% Corn Injury PN 3320 (Corn [1]; [17]): 0%
% Corn Injury PN 3377 (Corn [1]; [17]): 0%
Percent Injury Corn (Corn [1]; [18]): 0%
Percent Injury Corn (Corn [1]; [19]): 0%
% Injury VELE [2, 16]: 0%
Percent Injury VELE [2, 18]: 0%
Percent Injury VELE [2, 19]: 0%
interactions with herbicide in unsterile vs. sterile soil (Corn [3]): did not appear to be reduced
% Inhibition SHCA (Shattercane (SHCA); [20]): 25%
% Inhibition SHCA (Shattercane (SHCA); [21]): 20%
% Inhibition VELE (Velvetleaf (VELE) [4]; [21]): 15%
% Inhibition GIFT (Giant foxtail (GIFT) [5]): 10% and 20%
% Inhibition VELE (Velvetleaf (VELE) [6]): 0%
inhibition (cotton (COTT); Table 64): 0%
inhibition (cotton (COTT); Table 65): 0%
inhibition (Corn [7]; Table 64): 0%
inhibition (Corn [7]; Table 65): 0%
inhibition (Giant foxtail (GIFT) [8]; Table 64): 30%
inhibition (Giant foxtail (GIFT) [8]; Table 65): 30%
inhibition (RICE; Table 64): 10%
inhibition (RICE; Table 65): 0%
inhibition (grain sorghum (GRSO); Table 64): 0%
inhibition (grain sorghum (GRSO); Table 65): 0%
inhibition (soybean (SOBE); Table 64): 0%
inhibition (soybean (SOBE); Table 65): 0%
inhibition (wheat (WHEA); Table 64): 0%
inhibition (wheat (WHEA); Table 65): 0%
inhibition (Velvetleaf (VELE) [9]; Table 64): 0%
inhibition (Velvetleaf (VELE) [9]; Table 65): 0%
% Inhibition Corn (Corn [10]; [20]): 5%
effect on corn before application of the herbicide (Corn [10]; in vivo): slight early stunting and leaf malformation
% Inhibition Corn (Corn [11]): 5% and 0%

CCOP(=S)(OCC)Oc1nc(Cl)c(Cl)cc1Cl [Biocide No. 2, O,O-Diethyl O-(3,5,6-trichloro-2-pyridyl)phosphorothioate, reference compound]
% Injury Corn (Corn [1]; [22]): 8%
% Corn Injury PN 3320 (Corn [1]; [23]): 0%
% Corn Injury PN 3377 (Corn [1]; [23]): 0%
Percent Injury Corn (Corn [1]; Insecticide 2 3.36 kg/ha alone): 0%
% Injury VELE [2, 22]: 3%
Percent Injury VELE ([2]; Insecticide 2 3.36 kg/ha alone): 0%
% Injury Corn (Corn [12]): 0%
% Injury VELE (VELE (velvetleaf) [13]): 0%
% Injury Corn (Corn [14]; Insecticide 2 1.68 Kg/Ha alone): 0%
% Injury Corn (Corn [14]; [24]): 35%
% Injury VELE (VELE (velvetleaf) [15]; Insecticide 2 1.68 Kg/Ha alone): 0%
% Injury VELE (VELE (velvetleaf) [15]; [24]): 60%
interactions with herbicide in unsterile vs. sterile soil (Corn [3]): did not appear to be reduced
% Inhibition SHCA (Shattercane (SHCA); [25]): 0%
% Inhibition SHCA (Shattercane (SHCA); in vivo): 30%
% Inhibition SHCA (Shattercane (SHCA); [26]): 25%
% Inhibition VELE (Velvetleaf (VELE) [4]; [25]): 0%
% Inhibition VELE (Velvetleaf (VELE) [4]; in vivo): 0%
% Inhibition VELE (Velvetleaf (VELE) [4]; [26]): 0%
% Inhibition GIFT (Giant foxtail (GIFT) [5]): 45% and 70%
% Inhibition Corn (Corn [10]; [25]): 0%
% Inhibition Corn (Corn [10]; in vivo): 0%
% Inhibition Corn (Corn [10]; [26]): 0%
% Inhibition Corn (Corn [11]): 0%
